IC50 data for 1 compound are collected here from BindingDB's records for PubMed 36324498 (Yangtze University, 2022).

The IC50 is the concentration that inhibits the measured activity by half.

The target of this assay is Tyrosine-protein kinase Tec (Homo sapiens) (UniProt P42680). In words: Inhibition of TEC (unknown origin).
Sequence of Tyrosine-protein kinase Tec (Homo sapiens) (P42680 whole entry, looked up): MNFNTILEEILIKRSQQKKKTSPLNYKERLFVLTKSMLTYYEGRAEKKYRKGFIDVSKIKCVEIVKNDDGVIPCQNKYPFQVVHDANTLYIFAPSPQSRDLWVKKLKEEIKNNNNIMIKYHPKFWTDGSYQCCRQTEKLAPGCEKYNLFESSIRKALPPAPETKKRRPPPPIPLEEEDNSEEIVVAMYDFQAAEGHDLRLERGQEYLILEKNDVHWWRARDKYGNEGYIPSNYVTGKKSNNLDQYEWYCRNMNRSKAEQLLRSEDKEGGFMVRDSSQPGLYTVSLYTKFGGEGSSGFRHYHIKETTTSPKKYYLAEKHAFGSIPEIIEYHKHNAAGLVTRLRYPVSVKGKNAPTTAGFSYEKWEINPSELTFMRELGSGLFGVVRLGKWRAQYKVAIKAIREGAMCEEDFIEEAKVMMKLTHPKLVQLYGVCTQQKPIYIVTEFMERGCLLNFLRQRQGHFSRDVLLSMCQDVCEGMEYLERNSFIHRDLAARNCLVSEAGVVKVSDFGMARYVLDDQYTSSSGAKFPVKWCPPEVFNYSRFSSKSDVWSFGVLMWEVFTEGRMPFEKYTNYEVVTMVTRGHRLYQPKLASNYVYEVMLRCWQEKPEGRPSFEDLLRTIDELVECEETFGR

On to `N#CN1CCC[C@@H](n2nc(-c3ccc(Oc4ccc(F)cc4F)cc3)c(C(N)=O)c2N)C1`, for which the half-inhibitory concentration (IC50) came to 1.2 nM. That is a single-digit nanomolar value.
